Assay results reported in patent US5068412A, “(2R,3S,4S)-α-(carboxycyclopropyl)glycine” (Suntory Limited, priority 1988, dated 1991).
Where two headings read alike, the source gives them in different places.

Experiments:
[1] = Fowden et al., Phytochemistry, 8, 437, 1969; cited from earlier work
[2] = test system: motoneurones of isolated newborn rat spinal cord (NMDA type receptor); assay: depolarizing activity test, isolated newborn rat spinal cord (potential changes in motoneurones recorded from ventral root); conditions: for minimal effective concentration: read-out: Minimum effective concentration; for activity in the presence of 2-APV or Mg++: measured in the presence of 2APV or Mg++; for depolarizing activity, times as potent as L-glutamic acid: rat spinal cord, relative to L-glutamic acid; for Minimum effective concentration, relative activity: relative to L-Glu = 1; for type of activity: spinal cord of a rat
Procedure: The methods used for the electrophysiological experiment in the isolated newborn rat spiral cord were essentially similar to those described by Ohtsuka et al. (Nature, 252, 733-734, 1974). The potential changes generated in the motoneurones induced by L-glutamate analogues, namely, (2R,3S,4S)-α-(carboxycyclopropyl)glycine (1) of this invention and one of the stereoisomers, (2S,3R,4S)-α-(carboxycyclopropyl)-glycine (2) were recorded extracellularly from the ventral root with a suction electrode.

[3] = test system: motoneurones of isolated newborn rat spinal cord (NMDA type receptor); conditions: newborn rat spinal cord preparation; from Japanese Patent Application No. 129626/88; cited from earlier work
[4] = isolated newborn rat spinal cord, depolarization recorded extracellularly from ventral root

activity in the presence of 2-APV or Mg++ [2]	SMILES	effects caused [1]	minimal effective concentration [2, 4] [µM]	Minimum effective concentration, relative activity [2]	type of activity [2]	other results
–	N[C@H](C(=O)O)[C@H]1C[C@H]1C(=O)O [(2S,3S,4R)-α-(carboxycyclopropyl)glycine]	hypoglycemia and amesis	–	–	–	–
activity disappears	N[C@@H](C(=O)O)[C@H]1C[C@@H]1C(=O)O [Compound (1), (2R,3S,4S)-α-(carboxycyclopropyl)glycine]	–	0.3	300	N-methyl-D-aspartic acid (NMDA) like activity	depolarizing activity, times as potent as L-glutamic acid [2]: 300 times; depolarizing activity, times as potent as L-glutamic acid ([2]; listed as (2R,3S,4S)-α-(carboxycyclopropyl)glycine): more than 300 times; depolarizing activity compared with NMDA ([2]; relative to NMDA): much more potent than NMDA; depolarizing activity, times as potent as compound (2) ([2]; relative to compound (2)): 3 times
activity disappeared	N[C@H](C(=O)O)[C@@H]1C[C@@H]1C(=O)O [(2), (2S,3R,4S)-α-(carboxycyclopropyl)glycine]	–	1	100	potent NMDA-type depolarization	depolarizing activity, times more potent than L-glutamate [3]: about 100 times
–	N[C@H](C(=O)O)[C@H]1C[C@@H]1C(=O)O [(2S,3S,4S)-α-(carboxycyclopropyl)glycine]	hypoglycemia and amesis	–	–	–	–
–	N[C@@H](CCC(=O)O)C(=O)O [L-Glu, L-glutamic acid]	–	–	1	–	minimal effective concentration ([2]; Rattus norvegicus): 100 µM
